According to ChEMBL document CHEMBL3045554, “Synthesis and antimicrobial screening of N-(1-methyl-1H-pyrazole-4-carbonyl)-thiourea derivatives” (2012):
Calls of active or inactive are those of the source.

Key:
Pseudomonas aeruginosa [1] = experiment: Antimicrobial activity against Pseudomonas aeruginosa 5541 by microdilution method; type: functional
Bacillus subtilis [2] = experiment: Antimicrobial activity against Bacillus subtilis 10.10.2006 by microdilution method; type: functional
Staphylococcus aureus [3] = experiment: Antimicrobial activity against Staphylococcus aureus by microdilution method; type: functional
Klebsiella pneumoniae [4] = experiment: Antimicrobial activity against Klebsiella pneumoniae 126/2007 by microdilution method; type: functional
Escherichia coli [5] = experiment: Antimicrobial activity against Escherichia coli 637/2007 by microdilution method; type: functional
Enterococcus faecalis [6] = experiment: Antimicrobial activity against Enterococcus faecalis 13773 by microdilution method; type: functional
Acinetobacter baumannii [7] = experiment: Antimicrobial activity against Acinetobacter baumannii 15896 by microdilution method; type: functional
Escherichia coli [8] = experiment: Effect on gelatinase production in Escherichia coli 637/2007 after 24 hr by gelatin hydrolysis test; type: functional, organism-based
Pseudomonas aeruginosa [9] = experiment: Effect on DNase production in Pseudomonas aeruginosa 5541 after 24 hr; type: functional, organism-based
Pseudomonas aeruginosa [10] = experiment: Inhibition of caseinase production in Pseudomonas aeruginosa 5541 after 24 hr by casein hydrolysis assay; type: functional, organism-based
Klebsiella pneumoniae [11] = experiment: Effect on esculethol production in Klebsiella pneumoniae 126/2007 after 24 hr by esculin hydrolysis test; type: functional, organism-based
Bacillus subtilis [12] = experiment: Effect on esculethol production in Bacillus subtilis 10.10.2006 after 24 hr by esculin hydrolysis test; type: functional, organism-based
Acinetobacter baumannii [13] = experiment: Effect on amylase production in Acinetobacter baumannii 15896 after 24 hr by starch hydrolysis assay; type: functional, organism-based
Klebsiella pneumoniae [14] = experiment: Effect on lipase production in Klebsiella pneumoniae 126/2007 after 7 days; type: functional, organism-based
Klebsiella pneumoniae [15] = experiment: Effect on DNase production in Klebsiella pneumoniae 126/2007 after 24 hr; type: functional, organism-based
Enterococcus faecalis [16] = experiment: Effect on gelatinase production in Enterococcus faecalis 13773 after 24 hr by gelatin hydrolysis test; type: functional, organism-based
Pseudomonas aeruginosa [17] = experiment: Effect on esculethol production in Pseudomonas aeruginosa 5541 after 24 hr by esculin hydrolysis test; type: functional, organism-based
Pseudomonas aeruginosa [18] = experiment: Inhibition of lecithinase production in Pseudomonas aeruginosa 5541 after 7 days; type: functional, organism-based
Staphylococcus aureus [19] = experiment: Effect on lipase production in Staphylococcus aureus after 7 days; type: functional, organism-based
Bacillus subtilis [20] = experiment: Effect on amylase production in Bacillus subtilis 10.10.2006 after 24 hr by starch hydrolysis assay; type: functional, organism-based
Bacillus subtilis [21] = experiment: Effect on DNase production in Bacillus subtilis 10.10.2006 after 24 hr; type: functional, organism-based
Enterococcus faecalis [22] = experiment: Effect on amylase production in Enterococcus faecalis 13773 after 24 hr by starch hydrolysis assay; type: functional, organism-based
Klebsiella pneumoniae [23] = experiment: Effect on amylase production in Klebsiella pneumoniae 126/2007 after 24 hr by starch hydrolysis assay; type: functional, organism-based
Enterococcus faecalis [24] = experiment: Inhibition of lecithinase production in Enterococcus faecalis 13773 after 7 days; type: functional, organism-based
Escherichia coli [25] = experiment: Effect on esculethol production in Escherichia coli 637/2007 after 24 hr by esculin hydrolysis test; type: functional, organism-based
Acinetobacter baumannii [26] = experiment: Effect on DNase production in Acinetobacter baumannii 15896 after 24 hr; type: functional, organism-based
Escherichia coli [27] = experiment: Effect on amylase production in Escherichia coli 637/2007 after 24 hr by starch hydrolysis assay; type: functional, organism-based
Bacillus subtilis [28] = experiment: Effect on lipase production in Bacillus subtilis 10.10.2006 after 7 days; type: functional, organism-based
Enterococcus faecalis [29] = experiment: Effect on DNase production in Enterococcus faecalis 13773 after 24 hr; type: functional, organism-based
Klebsiella pneumoniae [30] = experiment: Effect on gelatinase production in Klebsiella pneumoniae 126/2007 after 24 hr by gelatin hydrolysis test; type: functional, organism-based
Staphylococcus aureus [31] = experiment: Effect on amylase production in Staphylococcus aureus after 24 hr by starch hydrolysis assay; type: functional, organism-based
Escherichia coli [32] = experiment: Effect on lipase production in Escherichia coli 637/2007 after 7 days; type: functional, organism-based
Staphylococcus aureus [33] = experiment: Effect on DNase production in Staphylococcus aureus after 24 hr; type: functional, organism-based
Escherichia coli [34] = experiment: Inhibition of caseinase production in Escherichia coli 637/2007 after 24 hr by casein hydrolysis assay; type: functional, organism-based
Bacillus subtilis [35] = experiment: Inhibition of lecithinase production in Bacillus subtilis 10.10.2006 after 7 days; type: functional, organism-based
Acinetobacter baumannii [36] = experiment: Inhibition of caseinase production in Acinetobacter baumannii 15896 after 24 hr by casein hydrolysis assay; type: functional, organism-based
Bacillus subtilis [37] = experiment: Effect on gelatinase production in Bacillus subtilis 10.10.2006 after 24 hr by gelatin hydrolysis test; type: functional, organism-based
Bacillus subtilis [38] = experiment: Inhibition of caseinase production in Bacillus subtilis 10.10.2006 after 24 hr by casein hydrolysis assay; type: functional, organism-based
Staphylococcus aureus [39] = experiment: Effect on esculethol production in Staphylococcus aureus after 24 hr by esculin hydrolysis test; type: functional, organism-based
Acinetobacter baumannii [40] = experiment: Effect on esculethol production in Acinetobacter baumannii 15896 after 24 hr by esculin hydrolysis test; type: functional, organism-based
Escherichia coli [41] = experiment: Effect on DNase production in Escherichia coli 637/2007 after 24 hr; type: functional, organism-based
Acinetobacter baumannii [42] = experiment: Inhibition of lecithinase production in Acinetobacter baumannii 15896 after 7 days; type: functional, organism-based
Staphylococcus aureus [43] = experiment: Inhibition of lecithinase production in Staphylococcus aureus after 7 days; type: functional, organism-based
Enterococcus faecalis [44] = experiment: Inhibition of caseinase production in Enterococcus faecalis 13773 after 24 hr by casein hydrolysis assay; type: functional, organism-based
Enterococcus faecalis [45] = experiment: Effect on esculethol production in Enterococcus faecalis 13773 after 24 hr by esculin hydrolysis test; type: functional, organism-based
Acinetobacter baumannii [46] = experiment: Effect on lipase production in Acinetobacter baumannii 15896 after 7 days; type: functional, organism-based
Pseudomonas aeruginosa [47] = experiment: Effect on gelatinase production in Pseudomonas aeruginosa 5541 after 24 hr by gelatin hydrolysis test; type: functional, organism-based
Klebsiella pneumoniae [48] = experiment: Inhibition of lecithinase production in Klebsiella pneumoniae 126/2007 after 7 days; type: functional, organism-based
Staphylococcus aureus [49] = experiment: Inhibition of caseinase production in Staphylococcus aureus after 24 hr by casein hydrolysis assay; type: functional, organism-based
Staphylococcus aureus [50] = experiment: Effect on gelatinase production in Staphylococcus aureus after 24 hr by gelatin hydrolysis test; type: functional, organism-based
Klebsiella pneumoniae [51] = experiment: Inhibition of caseinase production in Klebsiella pneumoniae 126/2007 after 24 hr by casein hydrolysis assay; type: functional, organism-based
Pseudomonas aeruginosa [52] = experiment: Effect on lipase production in Pseudomonas aeruginosa 5541 after 7 days; type: functional, organism-based
Pseudomonas aeruginosa [53] = experiment: Effect on amylase production in Pseudomonas aeruginosa 5541 after 24 hr by starch hydrolysis assay; type: functional, organism-based
Enterococcus faecalis [54] = experiment: Effect on lipase production in Enterococcus faecalis 13773 after 7 days; type: functional, organism-based
Acinetobacter baumannii [55] = experiment: Effect on gelatinase production in Acinetobacter baumannii 15896 after 24 hr by gelatin hydrolysis test; type: functional, organism-based
Escherichia coli [56] = experiment: Inhibition of lecithinase production in Escherichia coli 637/2007 after 7 days; type: functional, organism-based

CC(C)c1ccc(NC(=S)NC(=O)c2cnn(C)c2)cc1
> 1000 µg/mL: MIC (Pseudomonas aeruginosa [1]) | MIC (Bacillus subtilis [2]) | MIC (Staphylococcus aureus [3]) | MIC (Klebsiella pneumoniae [4]) | MIC (Escherichia coli [5]) | MIC (Enterococcus faecalis [6]) | MIC (Acinetobacter baumannii [7])

Cc1cccc(NC(=S)NC(=O)c2cnn(C)c2)c1
> 1000 µg/mL: MIC (Pseudomonas aeruginosa [1]) | MIC (Staphylococcus aureus [3]) | MIC (Escherichia coli [5]) | MIC (Enterococcus faecalis [6]) | MIC (Acinetobacter baumannii [7])
1000 µg/mL: MIC (Bacillus subtilis [2]) | MIC (Klebsiella pneumoniae [4])

CCCc1ccccc1NC(=S)NC(=O)c1cnn(C)c1
250 µg/mL: MIC (Enterococcus faecalis [6]) | MIC (Acinetobacter baumannii [7])
inactive: Activity (Escherichia coli [8]) | Activity (Pseudomonas aeruginosa [9]) | inhibition (Pseudomonas aeruginosa [10]) | Activity (Klebsiella pneumoniae [11]) | Activity (Bacillus subtilis [12]) | Activity (Acinetobacter baumannii [13]) | Activity (Klebsiella pneumoniae [14]) | Activity (Klebsiella pneumoniae [15]) | Activity (Enterococcus faecalis [16]) | Activity (Pseudomonas aeruginosa [17]) | inhibition (Pseudomonas aeruginosa [18]) | Activity (Staphylococcus aureus [19]) | Activity (Bacillus subtilis [20]) | Activity (Bacillus subtilis [21]) | Activity (Enterococcus faecalis [22]) | Activity (Klebsiella pneumoniae [23]) | inhibition (Enterococcus faecalis [24]) | Activity (Escherichia coli [25]) | Activity (Acinetobacter baumannii [26]) | Activity (Escherichia coli [27]) | Activity (Bacillus subtilis [28]) | Activity (Enterococcus faecalis [29]) | Activity (Klebsiella pneumoniae [30]) | Activity (Staphylococcus aureus [31]) | Activity (Escherichia coli [32]) | Activity (Staphylococcus aureus [33]) | inhibition (Bacillus subtilis [35]) | inhibition (Acinetobacter baumannii [36]) | Activity (Bacillus subtilis [37]) | inhibition (Bacillus subtilis [38]) | Activity (Staphylococcus aureus [39]) | Activity (Acinetobacter baumannii [40]) | Activity (Escherichia coli [41]) | inhibition (Acinetobacter baumannii [42]) | inhibition (Staphylococcus aureus [43]) | inhibition (Enterococcus faecalis [44]) | Activity (Enterococcus faecalis [45]) | Activity (Acinetobacter baumannii [46]) | Activity (Pseudomonas aeruginosa [47]) | inhibition (Klebsiella pneumoniae [48]) | inhibition (Staphylococcus aureus [49]) | Activity (Staphylococcus aureus [50]) | inhibition (Klebsiella pneumoniae [51]) | Activity (Pseudomonas aeruginosa [52]) | Activity (Pseudomonas aeruginosa [53]) | Activity (Enterococcus faecalis [54]) | Activity (Acinetobacter baumannii [55]) | inhibition (Escherichia coli [56])
500 µg/mL: MIC (Bacillus subtilis [2]) | MIC (Staphylococcus aureus [3]) | MIC (Klebsiella pneumoniae [4])
1000 µg/mL: MIC (Pseudomonas aeruginosa [1]) | MIC (Escherichia coli [5])
active: inhibition (Escherichia coli [34])

Cn1cc(C(=O)NC(=S)Nc2ccccc2C(C)(C)C)cn1
1000 µg/mL: MIC (Acinetobacter baumannii [7])
> 1000 µg/mL: MIC (Pseudomonas aeruginosa [1]) | MIC (Bacillus subtilis [2]) | MIC (Staphylococcus aureus [3]) | MIC (Klebsiella pneumoniae [4]) | MIC (Escherichia coli [5]) | MIC (Enterococcus faecalis [6])

Cn1cc(C(=O)NC(=S)Nc2ccc(C(C)(C)C)cc2)cn1
> 1000 µg/mL: MIC (Pseudomonas aeruginosa [1]) | MIC (Bacillus subtilis [2]) | MIC (Staphylococcus aureus [3]) | MIC (Klebsiella pneumoniae [4]) | MIC (Escherichia coli [5]) | MIC (Enterococcus faecalis [6]) | MIC (Acinetobacter baumannii [7])

Cc1ccccc1NC(=S)NC(=O)c1cnn(C)c1
> 1000 µg/mL: MIC (Pseudomonas aeruginosa [1]) | MIC (Bacillus subtilis [2]) | MIC (Staphylococcus aureus [3]) | MIC (Klebsiella pneumoniae [4]) | MIC (Escherichia coli [5]) | MIC (Enterococcus faecalis [6]) | MIC (Acinetobacter baumannii [7])
